Values of other authors in patent US20260185050A1, “BIOLOGIC INTERFACIAL TISSUE-ENGINEERED SYSTEMS USEFUL AS ARTHROPOD BITEMODEL” (UNIVERSITY OF CENTRAL FLORIDA RESEARCH FOUNDATION, INC., priority 2022, published 2026).

How the values were obtained:
[1] = C5 epimers of alginate
Culex pipiens = conditions: select experiments
Aedes albopictus = conditions: selective dose response work, males and females
Aedes aegypti = conditions: selective dose response work, males and females

| Structure (SMILES) | pKa [1] | kill performance versus erythritol (Culex pipiens) | kill performance versus erythritol (Aedes albopictus) | kill performance versus erythritol (Aedes aegypti) |
| --- | --- | --- | --- | --- |
| O=C(O)[C@@H]1O[C@@H](O)[C@@H](O)[C@@H](O)[C@@H]1O [G, α-L-guluronate] | 3.65 |  |  |  |
| O=C(O)[C@H]1O[C@@H](O)[C@@H](O)[C@@H](O)[C@@H]1O [M, β-D-mannuronate] | 3.38 |  |  |  |
| CC(O)CO (centres unmarked) [propylene glycol] |  | outperform erythritol | outperform erythritol | outperform erythritol |
